Results published in US12435066B2, “Substituted tricyclic compounds” (LUPIN LIMITED, priority 2019, dated 2025).

What was measured:
[1] = test system: MIA PaCa-2 human pancreatic cancer xenograft; test: Tumor growth inhibition in subchronic xenograft model; type: in vivo; conditions: MIA PaCa-2 xenograft in nude mice, 50 mg/kg b.i.d.
Experimental: In vivo efficacy of compound 87 was evaluated in MIA PaCa-2 human pancreatic cancer xenograft model in nude mice.
20×10^6 MIA PaCa-2 cells were injected subcutaneously in the presence of PBS and matrigel in 1:1 ratio in nude mice. The tumor-bearing mice were randomized once the tumors reached an average volume of approximately 154-159 mm^3 (Tumor volume range 107-248 mm^3). The mice were divided into the following groups (n=7-8/group): Vehicle control and compound 87 (50 mg/kg; b.i.d.).

[2] = biological target: T1, hSOS1 mediated nucleotide exchange on hKRASG12C (Homo sapiens, UniProt Q07889); test: biochemical
T1 sequence (Q07889 564-1049): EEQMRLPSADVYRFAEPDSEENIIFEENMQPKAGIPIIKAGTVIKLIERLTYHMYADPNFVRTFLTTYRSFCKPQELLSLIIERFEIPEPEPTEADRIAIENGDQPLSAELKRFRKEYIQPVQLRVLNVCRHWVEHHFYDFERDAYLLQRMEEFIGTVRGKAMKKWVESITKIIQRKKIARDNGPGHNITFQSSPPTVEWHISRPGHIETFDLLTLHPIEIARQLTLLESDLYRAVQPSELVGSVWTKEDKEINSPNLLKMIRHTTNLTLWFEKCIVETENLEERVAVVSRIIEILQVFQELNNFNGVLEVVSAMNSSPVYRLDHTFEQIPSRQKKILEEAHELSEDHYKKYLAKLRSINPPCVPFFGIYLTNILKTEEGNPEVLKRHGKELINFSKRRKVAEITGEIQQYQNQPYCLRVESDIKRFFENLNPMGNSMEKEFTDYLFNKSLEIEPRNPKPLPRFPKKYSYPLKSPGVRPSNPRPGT
Experimental: Example-127: Guanine Nucleotide Exchange Assay (GNEA)
GNEA assay was conducted to evaluate the effects of compounds on the nucleotide exchange on hKRASG12C mediated by hSOS1. Inhibitory effect of compounds on HIS-hSOS1, 564-1049aa mediated GTP loading onto GST-hKRASG12C, 1-169aa both expressed and purified in-house was assessed using HTRF detection technology in biochemical assay. Compounds were pre-incubated with hSOS1 working solution containing 10-50 nM hSOS1 and 200 nM EDA-GTP-DY-647P1 (Custom manufactured, Jena Biosciences) per well of a 384 well plate (Perkin Elmer, Cat #6007290) for 10 min at 20° C. in the assay buffer containing 10 mM HEPES, pH 7.4, 150 mM NaCl, 5 mM MgCl2, 1 mM DTT, 0.05% BSA fraction V and 0.0025% Igepal. Reaction was initiated by adding working solution of hKRASG12C containing 25-125 nM hKRASG12C and MAb Anti-GST-Tb (#61GSTTLA, Cisbio BioAssays) in assay buffer. Total assay volume was 15 μL. Reaction was continued for 30-60 min at 20° C. HTRF signal was recorded in PHERAStar microplate reader. Ratio of signal obtained at 665 nm and 620 nm was used to compute the percent inhibition of compound as follows.
Where, Positive control=hSOS1+EDA-GTP-DY-647P1+hKRASG12C+MAb Anti-GST-Tb Negative control=EDA-GTP-DY-647P1+hKRASG12C+MAb Anti-GST-Tb

hSOS1 and hKRASG12C = biological target: T2, hSOS1 and hKRASG12C (Homo sapiens, UniProt Q07889); test: biochemical
T2 sequence (Q07889 564-1049): T1 sequence (Q07889 564-1049)
Experimental: Interaction assay was conducted to evaluate the ability of the compounds to disrupt the protein-protein interactions between hSOS1 and hKRASG12C. Inhibitory effect of compounds on GST-hSOS1, 564-1049aa expressed and purified in-house and HIS-hKRASG12C (R06-32DH, SignalChem) interaction was assessed using HTRF detection technology in biochemical assay. Compounds were pre-incubated with 10-50 nM working solution of hSOS1 per well of a 384 well plate (Perkin Elmer, Cat #6007290) for 10 min at 20° C. in the assay buffer containing 5 mM HEPES, pH 7.4, 150 mM NaCl, 10 mM EDTA, 1 mM DTT, 0.05% BSA fraction V and 0.0025% Igepal. Reaction was initiated by adding 100-300 nM working solution of hKRASG12C in assay buffer. Total assay volume was 15 μL. Reaction was continued for 30-60 min at 20° C. Then detection solution containing MAb Anti-GST-d2 (#61GSTDLA, Cisbio BioAssays) and MAb Anti-HIS-Tb (#61HISTLA, Cisbio BioAssays), all prepared in HTRF detection buffer (#61DB10RDF, Cisbio BioAssays) was added and further incubated for 30-60 min at 20° C. HTRF signal was recorded in PHERAStar microplate reader. Ratio of signal obtained at 665 nm and 620 nm was used to compute the percent inhibition of compound utilizing the following formula:
Positive control=hSOS1+hKRASG12C+MAb Anti-GST-d2+Mab Anti-HIS-Tb Negative control=hKRASG12C+MAb Anti-GST-d2+MAb Anti-HIS-Tb

pERK in DLD1 cells = test: ERK phosphorylation assay after EGF stimulation; type: cell-based; conditions: Homo sapiens, DLD-1, compound 2 h, 200 ng/ml hEGF 5 minutes, alphascreen pERK, read-out: ERK phosphorylation inhibition IC50
How it was run: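 DLD1 cells pretreated 2 h with compound, then stimulated 5 minutes with 200 ng/ml hEGF. Lysates assayed for ERK1/2 p-T202/Y204 by AlphaScreen SureFire, read after 2 h at 25-28° C.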

DLD-1 cell line = test: Colony formation assay (single agent activity); type: cell-based; conditions: Homo sapiens, 168 h, 7 days of drug treatment, crystal violet
Experimental: Example-129: Colony Formation Assay Protocol (Single Agent Activity)
DLD-1/MIA PaCa-2 cells were seeded at a density of 300/500 cells per well respectively in 48 well tissue culture plate and cells were allowed to settle overnight (16 to 20 h). On the following day, cells were treated with different concentrations of test or reference compound and the assay plates were incubated under standard cell culture conditions (37° C. with 5% CO2). After 7 days of drug treatment, media was removed from each well and plates were washed with PBS. Colonies were stained with crystal violet solution for 2-5 min. Plate was then washed carefully under tap water and air dried. For quantitation, 200 μL destaining solution containing 10% Glacial acetic acid was added to each well and crystal violet from the colonies was allowed to solubilize for 20-30 min on plate shaker. After solubilization, absorbance of the extracted stain was recorded in BioTek Synergy Neo II plate reader at 590 nm. Absorbance values were directly proportional to colony growth.

In the case of `Cc1nc(N[C@H](C)c2cc(N)cc(C(F)(F)F)c2)c2cc(-c3ccc(=O)n(C)c3)c3c(c2n1)CCC3` [Compound 87, (R)-5-(4-((1-(3-amino-5-(trifluoromethyl)phenyl)ethyl)amino)-2-methyl-8,9-dihydro-7H-cyclopenta[h]quinazolin-6-yl)-1-methylpyridin-2(1H)-one], the “% tumor growth inhibition” value [1] is reported as “more than 70%”, the IC50 [2] is reported as 31 to 70 nM and the IC50 (hSOS1 and hKRASG12C) is reported as 1 to 10 nM. The IC50 (pERK in DLD1 cells) was 1 to 200 nM and the IC50 (DLD-1 cell line) was 500 to 6000 nM.
